Experimental data reported in the NIST ThermoML archive (doi:10.1021/je700260f).

Conditions: Liquid, Vibrating tube method

FC(C(F)(F)F)C(F)(F)F [1,1,1,2,3,3,3-heptafluoropropane]
Conditions | mass density [kg/m3]
313.14 K, 30999 kPa | 1493.6
313.14 K, 31036 kPa | 1493.7
313.14 K, 31073 kPa | 1494
313.14 K, 31110 kPa | 1494.1
313.14 K, 31162 kPa | 1494.3
313.14 K, 31193 kPa | 1494.3
313.14 K, 31225 kPa | 1494.5
313.14 K, 31252 kPa | 1494.5
313.14 K, 31284 kPa | 1494.6
313.14 K, 31324 kPa | 1494.9
313.14 K, 31355 kPa | 1494.8
313.14 K, 31397 kPa | 1495.1
313.14 K, 31585 kPa | 1495.6
313.14 K, 31617 kPa | 1495.8
313.14 K, 31653 kPa | 1495.9
313.14 K, 31696 kPa | 1495.9
313.14 K, 31739 kPa | 1496.2
313.14 K, 32132 kPa | 1497.6
313.14 K, 32203 kPa | 1497.7
313.14 K, 32369 kPa | 1498.3
313.14 K, 32414 kPa | 1498.5
313.14 K, 32447 kPa | 1498.5
313.14 K, 32485 kPa | 1498.7
313.14 K, 32523 kPa | 1498.9
313.14 K, 32566 kPa | 1499
313.14 K, 32604 kPa | 1499
313.14 K, 32652 kPa | 1499.4
313.14 K, 32736 kPa | 1499.5
313.14 K, 32789 kPa | 1499.7
313.14 K, 32821 kPa | 1500
313.14 K, 32853 kPa | 1500
313.14 K, 32900 kPa | 1500.1
313.14 K, 32937 kPa | 1500.2
313.14 K, 32975 kPa | 1500.4
313.14 K, 33013 kPa | 1500.5
313.14 K, 33094 kPa | 1500.7
313.15 K, 714 kPa | 1321.1
313.15 K, 733 kPa | 1321.4
313.15 K, 755 kPa | 1321.6
313.15 K, 777 kPa | 1321.7
313.15 K, 797 kPa | 1322.1
313.15 K, 819 kPa | 1322.3
313.15 K, 838 kPa | 1322.5
313.15 K, 871 kPa | 1322.8
313.15 K, 891 kPa | 1323.2
313.15 K, 917 kPa | 1323.3
313.15 K, 934 kPa | 1323.7
313.15 K, 963 kPa | 1323.9
313.15 K, 985 kPa | 1324
313.15 K, 1014 kPa | 1324.4
313.15 K, 1036 kPa | 1324.7
313.15 K, 1063 kPa | 1325
313.15 K, 1087 kPa | 1325.1
313.15 K, 1117 kPa | 1325.7
313.15 K, 1146 kPa | 1325.9
313.15 K, 1167 kPa | 1326.1
313.15 K, 1191 kPa | 1326.5
313.15 K, 1222 kPa | 1326.6
313.15 K, 1249 kPa | 1327
313.15 K, 1273 kPa | 1327.4
313.15 K, 1296 kPa | 1327.6
313.15 K, 1317 kPa | 1327.7
313.15 K, 1338 kPa | 1328
313.15 K, 1369 kPa | 1328.3
313.15 K, 1396 kPa | 1328.6
313.15 K, 1472 kPa | 1329.4
313.15 K, 1496 kPa | 1329.6
313.15 K, 1525 kPa | 1330
313.15 K, 1550 kPa | 1330.3
313.15 K, 1575 kPa | 1330.4
313.15 K, 1597 kPa | 1330.7
313.15 K, 1618 kPa | 1331
313.15 K, 1653 kPa | 1331.4
313.15 K, 1677 kPa | 1331.6
313.15 K, 1698 kPa | 1331.7
313.15 K, 1726 kPa | 1332.2
313.15 K, 1744 kPa | 1332.4
313.15 K, 1772 kPa | 1332.6
313.15 K, 1793 kPa | 1332.8
313.15 K, 1811 kPa | 1333
313.15 K, 1836 kPa | 1333.3
313.15 K, 1864 kPa | 1333.4
313.15 K, 1893 kPa | 1333.9
313.15 K, 1921 kPa | 1334.1
313.15 K, 1946 kPa | 1334.4
313.15 K, 1972 kPa | 1334.7
313.15 K, 1998 kPa | 1334.8
313.15 K, 2028 kPa | 1335.1
313.15 K, 2049 kPa | 1335.2
313.15 K, 2077 kPa | 1335.6
313.15 K, 2102 kPa | 1335.9
313.15 K, 2131 kPa | 1336.1
313.15 K, 2153 kPa | 1336.4
313.15 K, 2183 kPa | 1336.7
313.15 K, 2208 kPa | 1337
313.15 K, 2230 kPa | 1337.2
313.15 K, 2692 kPa | 1341.6
313.15 K, 2720 kPa | 1342
313.15 K, 2751 kPa | 1342.2
313.15 K, 2775 kPa | 1342.4
313.15 K, 2803 kPa | 1342.8
313.15 K, 2825 kPa | 1342.9
313.15 K, 2851 kPa | 1343.2
313.15 K, 2872 kPa | 1343.4
313.15 K, 2905 kPa | 1343.7
313.15 K, 2928 kPa | 1343.9
313.15 K, 2959 kPa | 1344.2
313.15 K, 2986 kPa | 1344.4
313.15 K, 3012 kPa | 1344.6
313.15 K, 3042 kPa | 1345
313.15 K, 3072 kPa | 1345.3
313.15 K, 3095 kPa | 1345.4
313.15 K, 3298 kPa | 1347.3
313.15 K, 3325 kPa | 1347.5
313.15 K, 3356 kPa | 1347.8
313.15 K, 3379 kPa | 1348
313.15 K, 3402 kPa | 1348.2
313.15 K, 3437 kPa | 1348.6
313.15 K, 3464 kPa | 1348.7
313.15 K, 3491 kPa | 1349.1
313.15 K, 3518 kPa | 1349.3
313.15 K, 3548 kPa | 1349.5
313.15 K, 3572 kPa | 1349.7
313.15 K, 3603 kPa | 1350.1
313.15 K, 3625 kPa | 1350.2
313.15 K, 3656 kPa | 1350.5
313.15 K, 3679 kPa | 1350.7
313.15 K, 3702 kPa | 1350.9
313.15 K, 3737 kPa | 1351.2
313.15 K, 3761 kPa | 1351.4
313.15 K, 3794 kPa | 1351.7
313.15 K, 3822 kPa | 1352
313.15 K, 3858 kPa | 1352.3
313.15 K, 3898 kPa | 1352.7
313.15 K, 3926 kPa | 1352.9
313.15 K, 3954 kPa | 1353.2
313.15 K, 3982 kPa | 1353.4
313.15 K, 4018 kPa | 1353.5
313.15 K, 4043 kPa | 1353.9
313.15 K, 4079 kPa | 1354.3
313.15 K, 4110 kPa | 1354.6
313.15 K, 4134 kPa | 1354.8
313.15 K, 4167 kPa | 1355
313.15 K, 4208 kPa | 1355.4
313.15 K, 4360 kPa | 1356.6
313.15 K, 4382 kPa | 1356.8
313.15 K, 4410 kPa | 1357
313.15 K, 4435 kPa | 1357.3
313.15 K, 4463 kPa | 1357.5
313.15 K, 4732 kPa | 1359.7
313.15 K, 4757 kPa | 1360
313.15 K, 4793 kPa | 1360.1
313.15 K, 4811 kPa | 1360.4
313.15 K, 4847 kPa | 1360.6
313.15 K, 4872 kPa | 1360.9
313.15 K, 4904 kPa | 1361.1
313.15 K, 4929 kPa | 1361.5
313.15 K, 4958 kPa | 1361.6
313.15 K, 4976 kPa | 1361.7
313.15 K, 5023 kPa | 1362.3
313.15 K, 5048 kPa | 1362.3
313.15 K, 5074 kPa | 1362.5
313.15 K, 5096 kPa | 1362.7
313.15 K, 5125 kPa | 1363.1
313.15 K, 5148 kPa | 1363.1
313.15 K, 5167 kPa | 1363.4
313.15 K, 5200 kPa | 1363.6
313.15 K, 5222 kPa | 1363.9
313.15 K, 5259 kPa | 1364
313.15 K, 5281 kPa | 1364.2
313.15 K, 5308 kPa | 1364.4
313.15 K, 5330 kPa | 1364.6
313.15 K, 5357 kPa | 1364.8
313.15 K, 5383 kPa | 1365.1
313.15 K, 5409 kPa | 1365.3
313.15 K, 5434 kPa | 1365.4
313.15 K, 5457 kPa | 1365.7
313.15 K, 5485 kPa | 1365.9
313.15 K, 5508 kPa | 1366.1
313.15 K, 5534 kPa | 1366.3
313.15 K, 5560 kPa | 1366.5
313.15 K, 5593 kPa | 1366.7
313.15 K, 5616 kPa | 1366.9
313.15 K, 5646 kPa | 1367.1
313.15 K, 5672 kPa | 1367.3
313.15 K, 5694 kPa | 1367.6
313.15 K, 5717 kPa | 1367.8
313.15 K, 5739 kPa | 1367.9
313.15 K, 5766 kPa | 1368
313.15 K, 5801 kPa | 1368.3
313.15 K, 5828 kPa | 1368.5
313.15 K, 5847 kPa | 1368.7
313.15 K, 5870 kPa | 1368.9
313.15 K, 5901 kPa | 1369.2
313.15 K, 5932 kPa | 1369.4
313.15 K, 5959 kPa | 1369.7
313.15 K, 5987 kPa | 1369.8
313.15 K, 6022 kPa | 1370
313.15 K, 6049 kPa | 1370.4
313.15 K, 6073 kPa | 1370.5
313.15 K, 6096 kPa | 1370.6
313.15 K, 6128 kPa | 1370.8
313.15 K, 6163 kPa | 1371.1
313.15 K, 6406 kPa | 1372.9
313.15 K, 6434 kPa | 1373
